Legend:
[1] = International Publication No. WO03/106439; cited from earlier work
[2] = Partition coefficient based on HPLC; type: physicochemical; conditions: mobile phase 50 mM triethylamine phosphate (pH 7.2)/acetonitrile=40/60
Protocol: Measurements of partition coefficient based on HPLC The partition coefficient by HPLC (hereinafter referred to as log PHPLC) was measured by the following method.
First, compounds for evaluation shown in Table 1-5 were dissolved at a concentration of 1 mg/mL in methanol containing 10% dimethylsulfoxide to prepare sample solutions. One μL of the sample solution was subjected to HPLC analysis under the following conditions to determine the elution time (t0) of the solvent and the elution time (tR) of each compound.
Column: Prodigy ODS (3) (product name; manufactured by phenomenex; size: 4.6×250 mm)
Mobile phase: a mixed solution of 50 mM triethylamine phosphate (pH 7.2)/acetonitrile=40/60
Detector: ultraviolet visible absorptiometer (detection wavelength: 282 nm)
Using the obtained t0 and tR, the retention factor (hereinafter referred to as K′HPLC value) of each compound for evaluation was determined according to the following calculation formula (1-3).
After the individual solutions were stirred for 30 seconds, the solutions were centrifuged at 2,000 rpm for 60 minutes. 1 mL each of the octanol phase and the water phase was fractionated, and the radioactivity was measured by an autowell gamma system (manufactured by Aloka Co., Ltd.: Type ARC-301B). Based on the obtained radioactivity, log Poctanol values were calculated according to the above equation (1-2). […]

[3] = Unspecific accumulation at sites without amyloid (applicant's studies); conditions: results of our studies
[4] = target: T1, amyloid (aggregated Aβ1-40) (Homo sapiens, UniProt P05067); experiment: Measurement of affinity with amyloid: inhibition of [125I]3′-I-BTA-0 binding; conditions: [125I]3′-I-BTA-0 400 pmol/L, amyloid 1 μmol/L, 22° C., 3 hours
T1 construct: Aβ1-40 (Peptide Institute, INC.) was dissolved in phosphate buffer (pH 7.4); purchased Peptide Institute, INC
Protocol: Affinity of the present compounds with amyloid was examined by the following in vitro binding tests.
(1) Aβ1-40 (Peptide Institute, INC.) was dissolved in phosphate buffer (pH 7.4) and shaken at 37° C. for 62-72 hours, to obtain a 1 mg/mL suspension of aggregated Aβ (hereinafter referred to as amyloid suspension in this Example).
(3) According to the method described in a literature (Wang, Y., et al., J. Labeled Compounds Radiopharmaceut. 44, 5239 (2001)), [^125I]2-(3′-iodo-4′-aminophenyl)benzothiazole (hereinafter referred to as […]) was prepared from a labeling precursor 2-(4′-aminophenyl)benzothiazole, and dissolved in ethanol.
(5) Samples in which [^125I]3′-I-BTA-0, each compound for evaluation and amyloid were dissolved in a 0.1% bovine serum albumin-containing phosphate buffer (pH 7.4) at final concentrations shown in Table 1-2 were prepared. The resulting samples were filled in each well (about 0.3 mL in volume) of a 96-well microplate.
(6) The microplate filled with the sample solutions was shaken at a given rate (400 rpm) at 22° C. for 3 hours. Then, each sample solution was filtered through a glass fiber filter (trade name: Mulutiscreen™-FC, manufactured by Millipore), to separate the [^125I]3′-I-BTA-0 attached to amyloid from the free [^125I]3′-I-BTA-0.
(7) The glass fiber filter used for the filtration of each sample solution was washed with a 0.1% bovine serum albumin-containing phosphate buffer (pH 7.4) (0.5 mL×5), and radioactivity of the glass fiber filter was measured with an autowell gamma system (manufactured by Aloka, Type: ARC-301B).
(8) Separately, a solution of containing 15 μmol/L of 6-Me-BTA-2, […] of [^125I]3′-I-BTA-0 and 1 μmol/L of Aβ1-40 were prepared and subjected to the same procedures as described above in (6) and (7) to measure a radioactivity level. The measured radioactivity level was defined as the background radioactivity level, and used in the calculation of the inhibition ratio (hereinafter referred to as BG).
(9) Using the radioactivity levels measured above in (7) and (8), the inhibition ratio was determined by the following formula (1-1).
A graph in which values converted by probit transformation from the obtained inhibition ratios were plotted relative to logarithms of concentrations of compounds for evaluation was prepared to obtain an approximate straight line by the least square method. Using the line, the concentration of each compound for evaluation was determined, at which the radioactivity level is half of the level of the sample free from each compound for evaluation, and was defined as a 50% inhibition concentration of each compound (hereinafter referred to as IC50% value). Using the value as an indicator, affinity of each compound for evaluation with amyloid (aggregated Aβ1-40) was evaluated.

[5] = system: Salmonella typhimurium TA98; experiment: Reverse mutation test (Ames test), TA98; type: cell-based
Protocol: (§1) In order to examine mutagenicity of Compound I-1, I-2, I-4 and I-5, reverse mutation test using Salmonella typhimurium TA98 and TA100 (hereinafter referred to as Ames test) was conducted.
(§2) The test was conducted without addition of S9mix and with addition of S9mix. Dimethylsulfoxide was used as a negative control. A positive control was 2-(2-furyl)-3-(5-nitro-2-furyl)acrylamide in case S9mix was not added, and 2-aminoanthracene in case S9mix was added.
(§3) The amount of each sample to be added to the test plate was 7 dosages (geometric ratio 4) with the maximum dose being 1250 μg/plate for Compounds I-1 and I-5, and 7 dosages (geometric ratio 3) with the maximum dose being 5000 μg/plate for Compounds I-2 and I-4. After a sample to be examined and a strain (TA98 or TA100), or a sample to be examined, S9mix and the strain were mixed together, the mixture was multilayered using soft agar on a medium of a test plate, and then incubated at 37° C. for 48 hours.

[6] = system: Salmonella typhimurium TA98 and TA100; experiment: Reverse mutation test (Ames test), overall judgment; type: cell-based; conditions: TA98 and TA100, with and without S9mix
Protocol: as §1, §2, §3
The numbers of reverse mutation colonies of the respective strains in the group treated with Compounds I-1, I-2, I-4 and I-5 were less than two times the number in the group treated with the negative control, regardless of addition of S9mix and the addition amount of a sample to be examined. From the aforementioned results, it is judged that Compounds I-1, I-2, I-4 and I-5 are negative in the Ames test and have no mutagenicity.

[7] = system: Chinese Hamster fibroblast cell line (CHL/IU cell); experiment: Chromosome aberration test; type: cell-based; conditions: with or without S9 short-term treatment and 24-hour continuous treatment; 0.15-1.2 mg/mL
Protocol: In order to examine whether Compound I-4 can induce chromosome aberration, the chromosome aberration test was conducted using Chinese Hamster fibroblast cell line (CHL/IU cell) in a culture system with or without addition of S9 by short-term treatment process and in a 24-hour culture system by continuous treatment process. The addition amount of a sample to be tested was set to 1.2, 0.6, 0.3, and 0.15 mg/mL for all the respective culture systems.

[8] = system: bone marrow cells of Crlj:CD1 (ICR) male mouse; experiment: Micronucleus test; type: in vivo; conditions: single oral administration 250-2000 mg/kg, 24 and 48 hours
Protocol: In order to study mutagenicity (in vivo) of Compound I-4, induction of micronucleated polychromatic erythrocyte (hereinafter referred to as MNPCE) was examined using bone marrow cells of Crlj:CD1 (ICR) male mouse.
0 mg/kg (negative control group), 250, 500, 1000 and 2000 mg/kg (test sample group) were set as doses for the test. Mice were sacrificed 24 and 48 hours after single oral administration, and bone marrow smear was prepared and observed. Further, a single dose of MMC at 2 mg/kg was abdominally administrated in positive control group, mice were sacrificed 24 hours after the administration, and then bone marrow smear was prepared and observed.
As statistical analysis, significance tests were conducted by Wilcoxon rank sum test for the appearance frequency of MNPCE and the ratio of polychromatic erythrocyte (hereinafter referred to as PCE) to the total red blood cell (hereinafter referred to as RBC) in each administration group concerning the test sample and positive control groups relative to the negative control group and concerning these groups relative to each other where the significance level was set to less than 5% and less than 1%, respectively.

[9] = system: Salmonella typhimurium TA100; experiment: Reverse mutation test (Ames test), TA100; type: cell-based
Protocol: as §1, §2, §3

[10] = Transferability into brain and clearance (2); type: in vivo, male Wistar rats; conditions: rats, intravenous injection, Table 1-10
Protocol: 0.05 mL each of these solutions was injected under thiopental anesthesia into the tail vein of respective Wistar rats (7-week old). The rats were sacrificed by bleeding from abdominal artery, and brains were removed and subjected to measurement of mass of brains and further subjected to measurement of radioactivity (hereinafter referred to as A in this Example) with a single channel analyzer (detector type: SP-20 manufactured by OHYO KOKEN KOGYO Co., Ltd.) 2, 5, 30 and 60 minutes after the injection. Also, radioactivity (hereinafter referred to as B in this Example) of the rest of the whole body was measured in the same manner as above. Using these measurement results, radioactive distribution per unit weight of brain (% ID/g) at the respective time points were calculated in accordance with the following formula (1-7).
Three animals were used for experiment at the respective time points.

[11] = Partition coefficient based on the octanol extraction method; type: physicochemical; conditions: octanol / 10 mmol/L phosphate buffer (pH 7.4)
Protocol: After the mixture was centrifuged with a low-speed centrifuge (2000 rpm×60 min.), the octanol layer and the water layer were sampled each in an amount of 1 mL, and subjected to measurement of radioactivity count with an autowell gamma system (manufactured by Aloka, Type: ARC-301B). Using the obtained radioactivity count, log Poctanol was calculated in accordance with the equation (1-2).

[12] = Transferability into brain and clearance; type: in vivo, male Wistar rats; conditions: rats, intravenous injection
From the text: Three animals were used for Experiment I-20 and Comparative Experiment I-9, and two animals were used for Experiment I-21 at the respective time points.

[13] = Partition coefficient based on the octanol extraction method (Example I-29); type: physicochemical; conditions: octanol / 10 mmol/L phosphate buffer (pH 7.4), Table I-9
Protocol: To 2 mL of octanol, 10 μL each of the prepared sample solutions was added, and 2 mL of a 10 mmol/L phosphate buffer (pH 7.4) was further added, followed by stirring for 30 seconds.

T1 sequence (P05067 672-711 limits assumed): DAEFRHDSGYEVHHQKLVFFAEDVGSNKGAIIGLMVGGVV

CN(C)c1ccc(-c2cn3cc(I)ccc3n2)cc1 [IMPY, 6-iodo-2-[4′-(N,N-dimethylamino)phenyl]imidazo[1,2-a]pyridine]
reverse mutation test [1]: positive | logPHPLC value [2]: 2.1 | unspecific accumulation on sites other than amyloid deposition [3]: accumulates unspecifically on white matter or other sites where amyloid is not deposited

FCCOc1ccc(-c2cn3cc(I)ccc3n2)cc1 [Compound I-4, 2-[4′-(2″-fluoroethoxy)phenyl]-6-iodoimidazo[1,2-a]pyridine]
IC50 [4]: 900 pM | Mutagenicity, TA98, With addition of S9mix ([5]; with S9mix): Negative | Mutagenicity, TA98, Without addition of S9mix ([5]; without S9mix): Negative | Ames test judgment [6]: negative | capability of inducing chromosome aberration [7]: negative | mutagenicity (in vivo), induction of micronucleus [8]: negative | Mutagenicity, TA100, With addition of S9mix ([9]; with S9mix): Negative | Mutagenicity, TA100, Without addition of S9mix ([9]; without S9mix): Negative

CN(C)c1ccc(-c2cn3cc([123I])ccc3n2)cc1 [[^123I]-IMPY, reference compound]
Radioactive distribution per unit weight in brain, After 2 min. ([10]; 2 min.): 1.19 % ID/g | Radioactive distribution per unit weight in brain, After 5 min. ([10]; 5 min.): 0.97 % ID/g | Radioactive distribution per unit weight in brain, After 30 min. ([10]; 30 min.): 0.23 % ID/g | Radioactive distribution per unit weight in brain, After 60 min. ([10]; 60 min.): 0.09 % ID/g | logPoctanol value [11]: 2.1 | Radioactive distribution per unit weight in brain, After 2 min. ([12]; 2 min.): 1.02 % ID/g | Radioactive distribution per unit weight in brain, After 5 min. ([12]; 5 min.): 0.99 % ID/g | Radioactive distribution per unit weight in brain, After 30 min. ([12]; 30 min.): 0.20 % ID/g | Radioactive distribution per unit weight in brain, After 60 min. ([12]; 60 min.): 0.08 % ID/g | logPoctanol value [13]: 2.1

— US20100267952A1, “USE OF NOVEL COMPOUND HAVING AFFINITY FOR AMYLOID, AND PROCESS FOR PRODUCTION OF THE SAME” (NIHON MEDI-PHYSICS CO., LTD., priority 2007, published 2010)
